| SMILES | melting point [°C] |
| --- | --- |
| CC(C)(C)C(=O)c1c[nH]c2ncc(-c3cccc(C#N)c3)nc12 [Example 237, 3-[7-(2,2-Dimethyl-propionyl)-5H-pyrrolo[2,3-b]pyrazin-2-yl]-benzonitrile] | 248 to 249 |
| COc1cc(-c2cnc3[nH]cc(C(=O)NCC(C)O)c3n2)cc(OC)c1OC (stereo not drawn) [Example 22, 2-(3,4,5-Trimethoxy-phenyl)-5H-pyrrolo[2,3-b]pyrazine-7-carboxylic acid (2-hydroxy-propyl)-amide] | 201.9 to 202.6 |
| COc1cc(-c2cnc3[nH]cc(C(=O)C(C)(C)CO)c3n2)cc(OC)c1OC [Example 165, 3-hydroxy-2,2-dimethyl-1-[2-(3,4,5-trimethoxy-phenyl)-5H-pyrrolo[2,3-b]pyrazin-7-yl]-propan-1-one] | 227 to 229 |
| COc1cc(-c2cnc3[nH]cc(C(=O)C(C)(C)C)c3n2)cc(N2CC[S+]([O-])CC2)c1 [Example 269, 1-{2-[3-Methoxy-5-(1-oxo-1lambda*4*-thiomorpholin-4-yl)-phenyl]-5H-pyrrolo[2,3-b]pyrazin-7-yl}-2,2-dimethyl-propan-1-one] | 259 to 260 |
| COc1cc(-c2cnc3[nH]cc(C(=O)C(C)(C)OC)c3n2)cc(OC)c1OC [Example 131, 2-Methoxy-2-methyl-1-[2-(3,4,5-trimethoxy-phenyl)-5H-pyrrolo[2,3-b]pyrazin-7-yl]-propan-1-one] | 237.8 to 239.1 |
| CCOc1cc(-c2cnc3[nH]cc(C(=O)C(C)(C)C)c3n2)cc(N2CCCC2)c1 [Example 262, 1-[2-(3-Ethoxy-5-pyrrolidin-1-yl-phenyl)-5H-pyrrolo[2,3-b]pyrazin-7-yl]-2,2-dimethyl-propan-1-one] | 236 to 237 |
| CC1(C(=O)c2c[nH]c3ncc(-c4ccc(N5CCNCC5)cc4)nc23)CCCCC1 [Example 185, (1-Methyl-cyclohexyl)-[2-(4-piperazin-1-yl-phenyl)-5H-pyrrolo[2,3-b]pyrazin-7-yl]-methanone] | 214 to 216 |
| CC1(C(=O)c2c[nH]c3ncc(-c4cccc(N5CCCC5)c4)nc23)CCCC1 [Example 167, (1-Methyl-cyclopentyl)-[2-(3-pyrrolidin-1-yl-phenyl)-5H-pyrrolo[2,3-b]pyrazin-7-yl]-methanone] | 242 to 243 |
| COc1cc(-c2cnc3[nH]cc(C(=O)C4(C)CCCC(C)C4)c3n2)cc(OC)c1OC (stereo not drawn) [Example 169, (1,3-Dimethyl-cyclohexyl)-[2-(3,4,5-trimethoxy-phenyl)-5H-pyrrolo[2,3-b]pyrazin-7-yl]-methanone] | 229 to 231 |
| CC(C)(C)OCc1cccc(-c2cnc3[nH]cc(C(=O)C(C)(C)C)c3n2)c1 [Example I-336, 1-[2-(3-tert-Butoxymethyl-phenyl)-5H-pyrrolo[2,3-b]pyrazin-7-yl]-2,2-dimethyl-propan-1-one] | 202 to 203 |
| COCC(=O)c1c[nH]c2ncc(-c3cc(OC)c(OC)c(OC)c3)nc12 [Example 132, 2-Methoxy-1-[2-(3,4,5-trimethoxy-phenyl)-5H-pyrrolo[2,3-b]pyrazin-7-yl]-ethanone] | 229 to 230 |
| CNC(=O)C1(C)CCN(c2cccc(-c3cnc4[nH]cc(C(=O)C(C)(C)C)c4n3)c2)C1 (stereo not drawn) [Example 210, 1-{3-[7-(2,2-Dimethyl-propionyl)-5H-pyrrolo[2,3-b]pyrazin-2-yl]-phenyl}-3-methyl-pyrrolidine-3-carboxylic acid methylamide] | 252 to 254 |
| CC(=O)Nc1cccc(-c2cnc3[nH]cc(C(=O)C(C)(C)C)c3n2)c1 [Example 228, N-{3-[7-(2,2-Dimethyl-propionyl)-5H-pyrrolo[2,3-b]pyrazin-2-yl]-phenyl}-acetamide] | 249 to 250 |
| CC(C)(C)C(=O)c1c[nH]c2ncc(-c3cc(OCCS(C)(=O)=O)cc(N4CCCC4)c3)nc12 [Example 267, 1-{2-[3-(2-Methanesulfonyl-ethoxy)-5-pyrrolidin-1-yl-phenyl]-5H-pyrrolo[2,3-b]pyrazin-7-yl}-2,2-dimethyl-propan-1-one] | 230 to 232 |
| CCNc1cccc(-c2cnc3[nH]cc(C(=O)C(C)(C)C)c3n2)c1 [Example 227, 1-[2-(3-Ethylamino-phenyl)-5H-pyrrolo[2,3-b]pyrazin-7-yl]-2,2-dimethyl-propan-1-one] | 189 to 191 |
| CC(C)COc1cccc(-c2cnc3[nH]cc(C(=O)C(C)(C)C)c3n2)c1 [Example 137, 1-[2-(3-Isobutoxy-phenyl)-5H-pyrrolo[2,3-b]pyrazin-7-yl]-2,2-dimethyl-propan-1-one] | 177 to 178 |
| CC(C)(C)C(=O)c1c[nH]c2ncc(-c3cc(N4CCCC4)cc(N4CCCC4)c3)nc12 [Example 97, 1-[2-(3,5-Di-pyrrolidin-1-yl-phenyl)-5H-pyrrolo[2,3-b]pyrazin-7-yl]-2,2-dimethyl-propan-1-one] | 291 to 303 |
| CC1(C(=O)c2c[nH]c3ncc(-c4cccc(N5CCCC5)c4)nc23)CCCCC1 [Example 36, (1-Methyl-cyclohexyl)-[2-(3-pyrrolidin-1-yl-phenyl)-5H-pyrrolo[2,3-b]pyrazin-7-yl]-methanone] | 243 to 245.4 |
| COc1cc(-c2cnc3[nH]cc(C(=O)C4(C)CCC(=O)C4)c3n2)cc(OC)c1OC (stereo not drawn) [Example 214, 3-Methyl-3-[2-(3,4,5-trimethoxy-phenyl)-5H-pyrrolo[2,3-b]pyrazine-7-carbonyl]-cyclopentanone] | 238 to 240 |
| CN1CCN(c2ccc(-c3cnc4[nH]cc(C(=O)C5(C)CCCCC5)c4n3)cc2)CC1 [Example 170, (1-Methyl-cyclohexyl)-{2-[4-(4-methyl-piperazin-1-yl)-phenyl]-5H-pyrrolo[2,3-b]pyrazin-7-yl}-methanone] | 225 to 226 |
| CCOc1cccc(-c2cnc3[nH]cc(C(=O)C(C)(C)C)c3n2)c1 [Example 136, 1-[2-(3-Ethoxy-phenyl)-5H-pyrrolo[2,3-b]pyrazin-7-yl]-2,2-dimethyl-propan-1-one] | 195 to 196 |
| CC(=O)N1CCN(c2ccc(-c3cnc4[nH]cc(C(=O)C5(C)CCCCC5)c4n3)cc2)CC1 [Example 186, 1-(4-{4-[7-(1-Methyl-cyclohexanecarbonyl)-5H-pyrrolo[2,3-b]pyrazin-2-yl]-phenyl}-piperazin-1-yl)-ethanone] | 278 to 284.9 |
| COC(=O)C1(C)CCN(c2cccc(-c3cnc4[nH]cc(C(=O)C(C)(C)C)c4n3)c2)C1 (stereo not drawn) [Example 209, 1-{3-[7-(2,2-Dimethyl-propionyl)-5H-pyrrolo[2,3-b]pyrazin-2-yl]-phenyl}-3-methyl-pyrrolidine-3-carboxylic acid methyl ester] | 198 to 200 |

Second part, the compound after the results:

| melting point [°C] | SMILES |
| --- | --- |
| 199.5 to 200.7 | COc1ccccc1-c1cnc2[nH]cc(C(=O)C(C)(C)C)c2n1 [Example I-133, 1-[2-(2-Methoxy-phenyl)-5H-pyrrolo[2,3-b]pyrazin-7-yl]-2,2-dimethyl-propan-1-one] |
| 277 to 278 | CC(C)(C)C(=O)c1c[nH]c2ncc(-c3cccc(-c4ccn[nH]4)c3)nc12 [Example I-126, 2,2-Dimethyl-1-{2-[3-(2H-pyrazol-3-yl)-phenyl]-5H-pyrrolo[2,3-b]pyrazin-7-yl}-propan-1-one] |
| 234.9 to 236.1 | Cc1cc(-c2cnc3[nH]cc(C(=O)C(C)(C)C)c3n2)cc(C(C)(C)C)c1 [Example I-334, 1-[2-(3-tert-Butyl-5-methyl-phenyl)-5H-pyrrolo[2,3-b]pyrazin-7-yl]-2,2-dimethyl-propan-1-one] |
| 266 to 267 | CC(=O)N1CCN(c2ccc(-c3cnc4[nH]cc(C(=O)C(C)(C)C)c4n3)cc2)CC1 [Example I-99, 1-{2-[4-(4-Acetyl-piperazin-1-yl)-phenyl]-5H-pyrrolo[2,3-b]pyrazin-7-yl}-2,2-dimethyl-propan-1-one] |
| 257 to 258 | CNC(=O)c1cccc(-c2cnc3[nH]cc(C(=O)C(C)(C)C)c3n2)c1 [Example I-129, 3-[7-(2,2-Dimethyl-propionyl)-5H-pyrrolo[2,3-b]pyrazin-2-yl]-N-methyl-benzamide] |
| 239 to 241 | CC(C)(C)C(=O)c1c[nH]c2ncc(-c3cccc(N4CCC5(CCSC5)C4)c3)nc12 (stereo not drawn) [Example I-168, 2,2-Dimethyl-1-{2-[3-(2-thia-7-aza-spiro[4.4]non-7-yl)-phenyl]-5H-pyrrolo[2,3-b]pyrazin-7-yl}-propan-1-one] |
| 233 to 235 | CC(C)Oc1cc(-c2cnc3[nH]cc(C(=O)C(C)(C)C)c3n2)cc(N2CCCC2)c1 [Example I-152, 1-[2-(3-Isopropoxy-5-pyrrolidin-1-yl-phenyl)-5H-pyrrolo[2,3-b]pyrazin-7-yl]-2,2-dimethyl-propan-1-one] |
| 264 to 266 | Cc1ccc(-c2cnc3[nH]cc(C(=O)C(C)(C)C)c3n2)cc1NS(=O)(=O)c1ccc(N)cc1 [Example I-416, 4-Amino-N-{5-[7-(2,2-dimethyl-propionyl)-5H-pyrrolo[2,3-b]pyrazin-2-yl]-2-methyl-phenyl}-benzenesulfonamide] |
| 287 to 288 | CC(C)(C)C(=O)c1c[nH]c2ncc(-c3cccc(-c4cnc[nH]4)c3)nc12 [Example I-346, 1-{2-[3-(3H-Imidazol-4-yl)-phenyl]-5H-pyrrolo[2,3-b]pyrazin-7-yl}-2,2-dimethyl-propan-1-one] |
| 245 to 248 | CC(C)(C)C(=O)c1c[nH]c2ncc(-c3cccc(N4CCC(O)C4)c3)nc12 (stereo not drawn) [Example I-402, 1-{2-[3-(3-Hydroxy-pyrrolidin-1-yl)-phenyl]-5H-pyrrolo[2,3-b]pyrazin-7-yl}-2,2-dimethyl-propan-1-one] |
| 260 to 261 | CC(C)CC(=O)c1c[nH]c2ncc(-c3cccc(N4CCCC4)c3)nc12 [Example I-6, 3-Methyl-1-[2-(3-pyrrolidin-1-yl-phenyl)-5H-pyrrolo[2,3-b]pyrazin-7-yl]-butan-1-one] |
| 237.8 to 238.4 | COc1cc(-c2cnc3[nH]cc(C(=O)O)c3n2)cc(OC)c1OC [Example I-490, 2-(3,4,5-Trimethoxy-phenyl)-5H-pyrrolo[2,3-b]pyrazine-7-carboxylic acid] |
| 226 to 228 | CC(=O)Nc1ccc(S(=O)(=O)Nc2cccc(-c3cnc4[nH]cc(C(=O)C(C)(C)C)c4n3)c2)cc1 [Example I-412, N-(4-{3-[7-(2,2-Dimethyl-propionyl)-5H-pyrrolo[2,3-b]pyrazin-2-yl]-phenylsulfamoyl}-phenyl)-acetamide] |

Source: patent US8008298B2, “Pyrrolopyrazine kinase inhibitors” (Roche Palo Alto, priority 2008, dated 2011)
